The results in this text go back to PubChem BioAssay (NCI).

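Method: 48-hour compound exposure of cells in 96-well plates, five concentrations, linear interpolation of endpoints. GI50 marks 50% less growth. Definition used: TGI = concentration required for complete inhibition of growth.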 Some results are limits rather than exact numbers.

Among the test systems are HCT-116 colon; M14 melanoma; COLO 205 colon; HL-60(TB) leukemia; SF-539 CNS; HOP-92 NSCLC; UO-31 renal; HT29 colon; NCI-H226 lung; SW-620 colon.
Common to all, as to experiment: inhibition of tumour cell growth, NCI panel, 48 h

Regarding `CC1(C)S[C@@H]2[C@H](N3C(=O)c4ccccc4C3=O)CN2[C@H]1NC(=O)N[C@@H]1N2C[C@@H](N3C(=O)c4ccccc4C3=O)[C@H]2SC1(C)C`, the TGI in the assay on HCT-116 colon, in the assay on M14 melanoma, in the assay with COLO 205 colon, with HL-60(TB) leukemia, with SF-539 CNS and in the assay on HOP-92 NSCLC was more than 100 µM throughout. Moreover, the TGI in the assay with UO-31 renal, in the assay with HT29 colon, with NCI-H226 lung and with SW-620 colon was more than 100 µM each time.
As for `CC(=O)Nc1cc2cc(N)ccc2oc1=O`, the TGI with HCT-116 colon, in the assay on M14 melanoma, with COLO 205 colon, in the assay on HL-60(TB) leukemia, with SF-539 CNS and in the assay with HOP-92 NSCLC was more than 100 µM each time. In addition, the TGI in the assay on UO-31 renal, with HT29 colon, in the assay on NCI-H226 lung and with SW-620 colon was more than 100 µM in each case.
Consider `O=C1/C(=C/c2ccccc2)CN(C(=O)C(Cl)Cl)C/C1=C\c1ccccc1`, for which the GI50 with HCT-116 colon was 0.209 µM; in the assay with M14 melanoma it was 0.622 µM; with COLO 205 colon it was 1.19 µM; in the assay on HL-60(TB) leukemia, 0.36 µM; in the assay with SF-539 CNS it was 0.884 µM; in the assay on HOP-92 NSCLC, 1.26 µM. Further, the GI50 is 1.29 µM in the assay on UO-31 renal, 0.295 µM in the assay with HT29 colon, 1.22 µM with NCI-H226 lung and 0.135 µM in the assay with SW-620 colon. The TGI with HCT-116 colon was found to be 0.527 µM; with M14 melanoma it was 2.15 µM; in the assay on COLO 205 colon it was 3.01 µM; in the assay with HL-60(TB) leukemia, 2.04 µM; with SF-539 CNS, 2.25 µM; in the assay with HOP-92 NSCLC it was 3.09 µM. Further, the TGI is 2.62 µM in the assay on UO-31 renal, 1.06 µM in the assay with HT29 colon, 5.17 µM in the assay on NCI-H226 lung and 0.44 µM in the assay on SW-620 colon.
`CC(C)N1CCN(c2ccncc2S(=O)(=O)N2CCCCC2)CC1`: the TGI in the assay on HCT-116 colon, with M14 melanoma, with COLO 205 colon, in the assay on HL-60(TB) leukemia, in the assay with SF-539 CNS and with HOP-92 NSCLC was more than 100 µM throughout. In addition, the TGI in the assay with UO-31 renal, with HT29 colon, in the assay on NCI-H226 lung and with SW-620 colon was more than 100 µM throughout.
As to `CC(=O)O[C@H]([C@H](OC(C)=O)[C@H](C)OC(C)=O)[C@@H](/C=C/[C@@H]1CC=CC(=O)O1)OC(C)=O`, the GI50 was 33.4 µM in the assay with HCT-116 colon; 42.6 µM in the assay on M14 melanoma; 33.5 µM in the assay with COLO 205 colon; more than 100 µM in the assay with HL-60(TB) leukemia; 34.5 µM in the assay with SF-539 CNS; 17.3 µM with HOP-92 NSCLC. Moreover, the GI50 in the assay with UO-31 renal is 20.1 µM; in the assay on HT29 colon, 72.1 µM; in the assay on NCI-H226 lung it was more than 100 µM; with SW-620 colon it was 40 µM. The TGI was more than 100 µM in the assay on HCT-116 colon; more than 100 µM with M14 melanoma; more than 100 µM with COLO 205 colon; more than 100 µM in the assay on HL-60(TB) leukemia; 92.7 µM in the assay with SF-539 CNS; 61.7 µM with HOP-92 NSCLC. Also, the TGI in the assay with UO-31 renal is 39.9 µM; with HT29 colon it was more than 100 µM; in the assay with NCI-H226 lung it was more than 100 µM; in the assay with SW-620 colon, more than 100 µM.
As to `C=C1CC2(CC(c3ccccc3Cl)OC(c3ccccc3Cl)C2)OC1=O` (stereo not given), the TGI worked out at 3.17 µM with HCT-116 colon; 3.39 µM in the assay with M14 melanoma; 5.51 µM in the assay on COLO 205 colon; 12.1 µM in the assay with HL-60(TB) leukemia; 4.27 µM in the assay with SF-539 CNS; 4.65 µM with HOP-92 NSCLC. For the same compound, the TGI in the assay on UO-31 renal was 11.7 µM; with HT29 colon it was 6.68 µM; in the assay with NCI-H226 lung, 21.3 µM; with SW-620 colon it was 5.21 µM.
Turning to `CN(CCCCCl)P(=O)(OCCS(=O)(=O)CC(NC(=O)CCC(N)C(=O)O)C(=O)NC(C(=O)O)c1ccccc1)OCC1OC(n2ccc(N)nc2=O)C(O)C1O` (stereo not given), the GI50 in the assay with HCT-116 colon is 5.22 µM; in the assay with M14 melanoma, 4.37 µM; in the assay on COLO 205 colon, 22 µM; with HL-60(TB) leukemia it was 2.84 µM; in the assay with SF-539 CNS, more than 75 µM; in the assay on HOP-92 NSCLC, 4.8 µM. Moreover, the GI50 in the assay on UO-31 renal was 8.17 µM; in the assay with HT29 colon, 32.2 µM; in the assay with NCI-H226 lung it was more than 70.7 µM; in the assay with SW-620 colon, more than 44.9 µM. The TGI was more than 75 µM with HCT-116 colon; more than 75 µM with M14 melanoma; more than 75 µM with COLO 205 colon; more than 30.3 µM with HL-60(TB) leukemia; more than 75 µM with SF-539 CNS; 74.1 µM in the assay with HOP-92 NSCLC. For the same compound, the TGI is more than 59.7 µM in the assay on UO-31 renal, more than 75 µM with HT29 colon, more than 75 µM with NCI-H226 lung and more than 75 µM in the assay on SW-620 colon.
Turning to `CCCCOC(=O)c1ccc(N)cc1`, the GI50 with HCT-116 colon is 90 µM; with M14 melanoma, 41.1 µM; with COLO 205 colon, 32.1 µM; in the assay on HL-60(TB) leukemia, 52.7 µM; in the assay with SF-539 CNS, 30 µM; in the assay on HOP-92 NSCLC, 95.1 µM. Also, the GI50 with UO-31 renal is 8.74 µM; with HT29 colon, more than 100 µM; in the assay on NCI-H226 lung it was 63.6 µM; with SW-620 colon, 64 µM. Moreover, the TGI in the assay on HCT-116 colon, with M14 melanoma, in the assay on COLO 205 colon, with HL-60(TB) leukemia, in the assay on SF-539 CNS and in the assay on HOP-92 NSCLC was more than 100 µM each time. For the same compound, the TGI in the assay with UO-31 renal, with HT29 colon, with NCI-H226 lung and with SW-620 colon was more than 100 µM in each case.
For the compound `CCOC(=O)C1SC(=Nc2ccc(OC)c(OC)c2)N=C1C` (stereo not given), the TGI in the assay on HCT-116 colon was more than 100 µM; in the assay with M14 melanoma, more than 100 µM; in the assay with COLO 205 colon it was more than 100 µM; with HL-60(TB) leukemia, 49.1 µM; with SF-539 CNS it was more than 100 µM; in the assay with HOP-92 NSCLC, more than 100 µM. For the same compound, the TGI in the assay with UO-31 renal is 86.7 µM; in the assay with HT29 colon, 34.8 µM; in the assay with NCI-H226 lung it was more than 100 µM; in the assay on SW-620 colon it was more than 100 µM.
As for `COC(=O)c1cc(C(=O)OC)c(CC(=O)C(=O)NC2C3CC4CC(C3)CC2C4)nc1CC(=O)C(=O)NC1C2CC3CC(C2)CC1C3` (stereo not given), the TGI in the assay with HCT-116 colon, in the assay on M14 melanoma, with COLO 205 colon, in the assay with HL-60(TB) leukemia, in the assay with SF-539 CNS and in the assay with HOP-92 NSCLC was more than 100 µM each time. In addition, the TGI in the assay on UO-31 renal, with HT29 colon, with NCI-H226 lung and in the assay with SW-620 colon was more than 100 µM in each case.
